From patent US9944602B2, “Piperidinone herbicides” (E. I. DU PONT DE NEMOURS AND COMPANY, priority 2014, dated 2018)

Columns and labels:
Type in all cases: in vivo
[1] = tested on: wheat (winter wheat, Triticum aestivum); test: Test C postemergence wheat; conditions: Table C, scale 0 to 100
Text: (§1) Seeds of plant species selected from blackgrass (Alopecurus myosuroides), ryegrass, Italian (Italian ryegrass, Lolium multiflorum), wheat (winter wheat, Triticum aestivum), galium (catchweed bedstraw, Galium aparine), corn (Zea mays), crabgrass, large (large crabgrass, Digitaria sanguinalis), foxtail, giant (giant foxtail, Setaria faberii), johnsongrass (Sorghum halepense), lambsquarters (Chenopodium album), morningglory (Ipomoea coccinea), yellow (yellow nutsedge, Cyperus esculentus), pigweed (Amaranthus retroflexus), ragweed (common ragweed, Ambrosia elatior), soybean (Glycine max), barnyardgrass (Echinochloa crus-galli), oilseed rape (Brassica napus), waterhemp (common waterhemp, Amaranthus rudis), and velvetleaf (Abutilon theophrasti) were planted into a blend of loam soil and sand and treated preemergence with test chemicals formulated in a non-phytotoxic solvent mixture which included a surfactant. At the same time, plants selected from these crop and weed species and also chickweed (common chickweed, Stellaria media), kochia (Kochia scoparia), and oat, wild (wild oat, Avena fatua) were planted in pots containing Sunshine Redi-Earth® planting medium comprising spaghnum peat moss, vermiculite, starter nutrients and dolomitic limestone and treated with postemergence applications of test chemicals formulated in the same manner. Plants ranged in height from 2 to 18 cm (1- to 4-leaf stage) for postemergence treatments. Treated plants and controls were maintained in a greenhouse for 13 to 15 days, after which time all species were compared to controls and visually evaluated. Plant response ratings, summarized in Table C, are based on a scale of 0 to 100 where 0 is no effect and 100 is complete control. A dash (-) response means no test result.

[2] = tested on: pigweed (Amaranthus retroflexus); test: Test C postemergence pigweed; conditions: Table C, scale 0 to 100
Text: as §1

[3] = tested on: barnyardgrass (Echinochloa crus-galli); test: Test C postemergence barnyardgrass; conditions: Table C, scale 0 to 100
Text: as §1

[4] = tested on: oilseed rape (Brassica napus); test: Test C postemergence oilseed rape; conditions: Table C, scale 0 to 100
Text: as §1

[5] = tested on: waterhemp (common waterhemp, Amaranthus rudis); test: Test C postemergence waterhemp; conditions: Table C, scale 0 to 100
Text: as §1

[6] = tested on: crabgrass, large (large crabgrass, Digitaria sanguinalis); test: Test C preemergence crabgrass, large; conditions: Table C, scale 0 to 100
Text: as §1

[7] = tested on: ragweed (common ragweed, Ambrosia elatior); test: Test C preemergence ragweed; conditions: Table C, scale 0 to 100
Text: as §1

[8] = tested on: wheat (Triticum aestivum); test: Test A preemergence wheat; conditions: 0 to 100 scale, 0 no effect, 100 complete control
Text: (§2) Seeds of plant species selected from barnyardgrass (Echinochloa crus-galli), kochia (Kochia scoparia), ragweed (common ragweed, Ambrosia elatior), ryegrass, Italian (Italian ryegrass, Lolium multiflorum), crabgrass, large (large crabgrass, Digitaria sanguinalis), foxtail, giant (giant foxtail, Setaria faberii), morningglory (Ipomoea spp.), pigweed (Amaranthus retroflexus), velvetleaf (Abutilon theophrasti), wheat (Triticum aestivum), and corn (Zea mays) were planted into a blend of loam soil and sand and treated preemergence with a directed soil spray using test chemicals formulated in a non-phytotoxic solvent mixture which included a surfactant.
(§3) At the same time, plants selected from these crop and weed species and also blackgrass (Alopecurus myosuroides), and galium (catchweed bedstraw, Galium aparine) were planted in pots containing the same blend of loam soil and sand and treated with postemergence applications of test chemicals formulated in the same manner. Plants ranged in height from 2 to 10 cm and were in the one- to two-leaf stage for the postemergence treatment. Treated plants and untreated controls were maintained in a greenhouse for approximately 10 d, after which time all treated plants were compared to untreated controls and visually evaluated for injury. Plant response ratings, summarized in Table A, are based on a 0 to 100 scale where 0 is no effect and 100 is complete control. A dash (-) response means no test result.

[9] = tested on: crabgrass, large (large crabgrass, Digitaria sanguinalis); test: Test A postemergence crabgrass, large; conditions: 0 to 100 scale, 0 is no effect, 100 is complete control
Text: as §2, §3

[10] = tested on: morningglory (Ipomoea spp.); test: Test A postemergence morningglory; conditions: 0 to 100 scale, 0 is no effect, 100 is complete control
Text: as §2, §3

Structure (SMILES) | Plant response rating ([1]; 31 g ai/ha) | Plant response rating ([1]; 62 g ai/ha) | Plant response rating ([1]; 125 g ai/ha) | Plant response rating ([1]; 250 g ai/ha) | Plant response rating ([2]; 31 g ai/ha) | Plant response rating ([2]; 62 g ai/ha) | Plant response rating ([2]; 125 g ai/ha) | Plant response rating ([2]; 250 g ai/ha) | Plant response rating ([3]; 31 g ai/ha) | Plant response rating ([3]; 62 g ai/ha) | Plant response rating ([3]; 125 g ai/ha) | Plant response rating ([3]; 250 g ai/ha) | Plant response rating ([4]; 31 g ai/ha) | Plant response rating ([4]; 62 g ai/ha) | Plant response rating ([4]; 125 g ai/ha) | Plant response rating ([4]; 250 g ai/ha) | Plant response rating ([5]; 31 g ai/ha) | Plant response rating ([5]; 62 g ai/ha) | Plant response rating ([5]; 125 g ai/ha) | Plant response rating ([5]; 250 g ai/ha) | other results
O=C1NCCC(c2cccc(C(F)(F)F)c2)C1C(=O)Nc1ccccc1Cl (racemic) [Compound 17] | 0 | 0 | 0 | 0 | 0 | 0 | 0 | 5 | 0 | 0 | 5 | 50 | 0 | 0 | 0 | 0 | 0 | 0 | 0 | 0 | 
O=C1NCCC(c2cccc(C(F)(F)F)c2)C1C(=O)Nc1ccc(F)c(F)c1F (racemic) [Compound 28] |  |  |  |  |  |  |  |  |  |  |  |  |  |  |  |  |  |  |  |  | Plant response rating ([6]; 31 g ai/ha): 80; Plant response rating ([6]; 62 g ai/ha): 85; Plant response rating ([6]; 125 g ai/ha): 90; Plant response rating ([6]; 250 g ai/ha): 90; Plant response rating ([7]; 31 g ai/ha): 0; Plant response rating ([7]; 62 g ai/ha): 0; Plant response rating ([7]; 125 g ai/ha): 0; Plant response rating ([7]; 250 g ai/ha): 0
O=C1NCCC(c2cccc(C(F)(F)F)c2)C1C(=O)Nc1cccc(F)c1F (centres unmarked) [Compound 9, N-(2,3-difluorophenyl)-2-oxo-4-[3-(trifluoromethyl)phenyl]-3-piperidinecarboxamide] | 0 | 0 | 0 | 0 | 0 | 0 | 5 | 5 | 0 | 5 | 60 | 85 | 0 | 0 | 0 | 5 | 0 | 5 | 0 | 5 | Wheat plant response rating ([8]; 125 g ai/ha): 20; Wheat plant response rating ([8]; 500 g ai/ha): 50; Plant response rating, Crabgrass, Large ([9]; 125 g ai/ha): 80; Plant response rating, Crabgrass, Large ([9]; 500 g ai/ha): 90; Plant response rating, Morningglory ([10]; 125 g ai/ha): 0; Plant response rating, Morningglory ([10]; 500 g ai/ha): 40; Plant response rating ([6]; 31 g ai/ha): 95; Plant response rating ([6]; 62 g ai/ha): 95; Plant response rating ([6]; 125 g ai/ha): 98; Plant response rating ([6]; 250 g ai/ha): 98; Plant response rating ([7]; 31 g ai/ha): 0; Plant response rating ([7]; 62 g ai/ha): 0; Plant response rating ([7]; 125 g ai/ha): 10; Plant response rating ([7]; 250 g ai/ha): 20
O=C1NCCC(c2cccc(C(F)(F)F)c2)C1C(=O)Nc1ccccc1C(F)(F)F (centres unmarked) [Compound 10, 2-oxo-N-[2-(trifluoromethyl)phenyl)-4-[3-(trifluoromethyl)phenyl]-3-piperidinecarboxamide] |  |  |  |  |  |  |  |  |  |  |  |  |  |  |  |  |  |  |  |  | Wheat plant response rating ([8]; 125 g ai/ha): 0; Wheat plant response rating ([8]; 500 g ai/ha): 0; Plant response rating, Crabgrass, Large ([9]; 125 g ai/ha): 60; Plant response rating, Crabgrass, Large ([9]; 500 g ai/ha): 80; Plant response rating, Morningglory ([10]; 125 g ai/ha): 0; Plant response rating, Morningglory ([10]; 500 g ai/ha): 0
